Source: US6479515B1, “Heterocyclic benzenesulphonamide compounds as bradykinine antagonists” (Fournier Industrie et Sante, priority 1999, dated 2002)
Structures can show the parent of a compound that is named as a salt. Where two headings read alike, the source gives them in different places.

How the values were obtained:
human B2 receptor = target: T1, human B2 receptor (Homo sapiens, UniProt P30411); experiment: competitive binding test on CHO cell membranes expressing the human B2 receptor using [3H]-bradykinin as ligand
T1 construct: expressed in transfected cells; host or cells: CHO cells (membranes)
T1 sequence (P30411 1-391): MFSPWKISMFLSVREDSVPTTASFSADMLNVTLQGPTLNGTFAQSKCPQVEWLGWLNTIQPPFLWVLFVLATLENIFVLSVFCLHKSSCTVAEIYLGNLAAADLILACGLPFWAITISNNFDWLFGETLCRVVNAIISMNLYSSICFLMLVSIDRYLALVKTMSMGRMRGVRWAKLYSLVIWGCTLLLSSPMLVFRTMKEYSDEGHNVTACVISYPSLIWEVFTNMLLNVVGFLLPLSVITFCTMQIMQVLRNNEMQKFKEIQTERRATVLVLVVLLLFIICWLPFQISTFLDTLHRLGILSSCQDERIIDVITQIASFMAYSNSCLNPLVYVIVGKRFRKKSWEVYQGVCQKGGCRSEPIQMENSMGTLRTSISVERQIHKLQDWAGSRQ
Experimental: The activity of the products according to the invention was evaluated, according to a first aspect, as a function of their aptitude to bind to the bradykinin B2 receptors. […] It is likewise known that bradykinin is amongst one of the most powerful algesic agents known. The mode of action of kinins and more particularly of bradykinin makes a coupling of the peptides to the two types of receptors called B1 and B2 respectively take place. The B2 receptor belongs to the large family of receptors with seven transmembrane domains coupled to the G proteins and seems to be more particularly involved in the field of the pathologies mentioned above. This is the reason why the products of the invention, which have the property of being able to bind to the B2 receptor, inhibit the binding of bradykinin and, consequently, suppress its harmful activity. The test employed in order to measure this property is a competitive binding test on CHO cell membranes expressing the human B2 receptor using bradykinin labelled with tritium ([^3H]-bradykinin) as ligand.
The results are expressed by the Ki value, as calculated according to the recommended method with the description of the test employed and described according to D. Pruneau et al., in Br. J. Pharmacol. 1998, 125 p 365-372.

bradykinin B2 receptor = target: T2, bradykinin B2 receptor (Homo sapiens, UniProt P30411); experiment: inhibition of the contraction of the isolated human umbilical vein in the presence of bradykinin; type: cell-based
T2 construct: from tissue; host or cells: isolated human umbilical vein
T2 sequence (P30411 1-391): T1 sequence (P30411 1-391)
Text: This antagonist character is expressed by the value pA2, calculated according to a biological test employed in order to measure the inhibition of the contraction of the isolated human umbilical vein by the compounds according to the invention in the presence of bradykinin. The test procedure and the method of calculation of pA2 are described in the articles of D. Pruneau et al. published in Br. J. Pharmacol. 1998, 125, p 365-372 and J L. Paquet et al. Br. J. Pharmacol. 1999, 126 (in print).

[1] = isolated human umbilical vein, contraction in the presence of bradykinin, read-out: pA2 (converted)
[2] = isolated human umbilical vein, contraction in the presence of bradykinin

Compound | Ki (human B2 receptor) | Kb (bradykinin B2 receptor; [1]) | Kb (bradykinin B2 receptor) | pA2 (bradykinin B2 receptor; [2])
Cc1cc(-n2ccnc2)c2cccc(OCc3c(Cl)ccc(S(=O)(=O)N4CCC[C@H]4C(=O)NCC4CCN(CCO)CC4)c3Cl)c2n1 [64 A] | 0.034 nM | 0.501 nM |  | 
Cc1cc(-n2ccnc2)c2cccc(OCc3c(Cl)ccc(S(=O)(=O)N4CCC[C@H]4C(=O)NCC4CCN(CCCCO)CC4)c3Cl)c2n1 [Example 32, 1-[[2,4-Dichloro-3-[[[4-(1H-imidazol-1-yl)-2-methyl-8-quinolinyl]oxy]methyl]-phenyl]sulphonyl]-N-[[1-(4-hydroxybutyl)-4-piperidinyl]methyl]-2(S)-pyrrolidinecarboxamide, tartrate] | 1.4 nM |  | 0.794 nM | 
CC(=O)N[C@H]1CCN(S(=O)(=O)c2ccc(Cl)c(COc3cccc4c(-n5ccnc5)cc(C)nc34)c2Cl)C1 [Example 174, N-[1-[[2,4-Dichloro-3-[[[4-(1H-imidazol-1-yl)-2-methyl-8-quinolinyl]oxy]-methyl]phenyl]sulphonyl]-3(S)-pyrrolidinyl]acetamide] | 8.8 nM | 7.94 nM |  | 
Cc1cc(-n2cncn2)c2cccc(OCc3c(Cl)ccc(S(=O)(=O)N4CCC[C@H]4C(=O)NCC4CCN(CCCO)CC4)c3Cl)c2n1 [Example 30, 1-[[2,4-Dichloro-3-[[[2-methyl-4-(1H-1,2,4-triazol-1-yl)-8-quinolinyl]oxy]-methyl]phenyl]sulphonyl]-N-[[1-(3-hydroxypropyl)-4-piperidinyl]methyl]-2(S)-pyrrolidinecarboxamide, tartrate] | 0.73 nM |  | 2 nM | 
1-[[2,4-Dichloro-3-[[[4-(1H-imidazol-1-yl)-2-methyl-8-quinolinyl]oxy]methyl]-phenyl]sulphonyl]-N-[2-(4-morpholinyl)ethyl]-2(S)-pyrrolidinecarboxamide, hemisulphate [Example 48] | 32 nM |  |  | 8.5
Cc1cc(-n2ccnc2)c2cccc(OCc3c(Cl)ccc(S(=O)(=O)N4CCC[C@H]4C(=O)N(C)CCN(C)C)c3Cl)c2n1 [Example 73, 1-[[2,4-Dichloro-3-[[[4-(1H-imidazol-1-yl)-2-methyl-8-quinolinyl]oxy]methyl]-phenyl]sulphonyl]-N-[2-(dimethylamino)ethyl]-N-methyl-2(S)-pyrrolidine-carboxamide, tartrate] | 10 nM |  | 3.98 nM | 
Cc1cc(-n2ccnc2)c2cccc(OCc3c(Cl)ccc(S(=O)(=O)N4CCC[C@H]4C(=O)N(C)CCN(C)CCCO)c3Cl)c2n1 [Example 101, 1-[[2,4-Dichloro-3-[[[4-(1H-imidazol-1-yl)-2-methyl-8-quinolinyl]oxy]methyl]-phenyl]sulphonyl]-N-methyl-N-[2-[[3-(hydroxy)propyl](methyl)amino]ethyl]-2(S)-pyrrolidinecarboxamide, methanesulphonate] | 50 nM | 3.98 nM |  | 
Cc1cc(-n2ccnc2)c2cccc(OCc3c(Cl)ccc(S(=O)(=O)N4C[C@H](O)C[C@H]4C(=O)NCC4CCNCC4)c3Cl)c2n1 [Example 42, 1-[[2,4-Dichloro-3-[[[4-(1H-imidazol-1-yl)-2-methyl-8-quinolinyl]oxy]methyl]-phenyl]sulphonyl]-4(R)-hydroxy-N-(4-piperidinemethyl)-2(S)-pyrrolidine-carboxamide, ditartrate] | 77 nM | 5.01 nM |  | 
1-[[2,4-Dichloro-3-[[[4-(1H-imidazol-1-yl)-2-methyl-8-quinolinyl]oxy]methyl]-phenyl]sulphonyl]-N-[3-(dimethylamino)propyl]-N-methyl-2(S)-pyrrolidine-carboxamide, hemisulphate [Example 61] | 21 nM |  |  | 8.1
Cc1cc(-n2ccnc2)c2cccc(OCc3c(Cl)ccc(S(=O)(=O)N4CCC[C@H]4C(=O)NCC4CCNCC4)c3Cl)c2n1 [Example 10, 1-[[2,4-Dichloro-3-[[[4-(1H-imidazol-1-yl)-2-methyl-8-quinolinyl]oxy]methyl]-phenyl]sulphonyl]-N-(4-piperidinylmethyl)-2(S)-pyrrolidinecarboxamide, ditartrate] | 1 nM |  | 3.16 nM | 
Cc1cc(-n2ccnc2)c2cccc(OCc3c(Cl)ccc(S(=O)(=O)N4CCC[C@H]4C(=O)NCC4CCN(CCC(=O)O)CC4)c3Cl)c2n1 [Example 115, 4-[[[[1-[[2,4-Dichloro-3-[[[4-(1H-imidazol-1-yl)-2-methyl-8-quinolinyl]oxy]-methyl]phenyl]sulphonyl]-2(S)-pyrrolidinyl]carbonyl]amino]methyl]-1-piperidinepropanoic acid, tartrate] | 35 nM |  | 3.16 nM | 
Cc1cc(-n2ccnc2)c2cccc(OCc3c(Cl)ccc(S(=O)(=O)N4CCC[C@H]4C(=O)NCCN4CCCC4)c3Cl)c2n1 [Example 75, 1-[[2,4-Dichloro-3-[[[4-(1H-imidazol-1-yl)-2-methyl-8-quinolinyl]oxy]methyl]-phenyl]sulphonyl]-N-[2-(1-pyrrolidinyl)ethyl]-2(S)-pyrrolidinecarboxamide, tartrate] | 2.8 nM |  | 5.01 nM | 
Cc1cc(-n2ccnc2)c2cccc(OCc3c(Cl)ccc(S(=O)(=O)N4CCC[C@H]4C(=O)NCC4CCN(CCCO)CC4)c3Cl)c2n1 [Example 23, 1-[[2,4-Dichloro-3-[[[4-(1H-imidazol-1-yl)-2-methyl-8-quinolinyl]oxy]methyl]-phenyl]sulphonyl]-N-[[1-(3-hydroxypropyl)-4-piperidinyl]methyl]-2(S)-pyrrolidinecarboxamide, tartrate] | 0.45 nM |  | 0.794 nM | 
1-[[2,4-Dichloro-3-[[[4-(1H-imidazol-1-yl)-2-methyl-8-quinolinyl]oxy]methyl]-phenyl]sulphonyl]-N-[3-(4-morpholinyl)propyl]-2(S)-pyrrolidinecarboxamide, hemisulphate [Example 50] | 30 nM |  |  | 8.3
1-[[2,4-Dichloro-3-[[2(L)-[[4-(2-pyridinyl)-1-piperazinyl]carbonyl]-1-pyrrolidinyl]sulphonyl]-N-methyl-N-[3-[[3-(hydroxy)propyl]-(methyl)amino]propyl]-2(S)-pyrrolidinecarboxamide, methanesulphonate [Example 105] | 7.7 nM |  |  | 8.3
Cc1cc(-n2cncn2)c2cccc(OCc3c(Cl)ccc(S(=O)(=O)N4CCC[C@H]4C(=O)NCC4CCN(CCO)CC4)c3Cl)c2n1 [Example 166, 1-[[2,4-Dichloro-3-[[[2-methyl-4-(1H-1,2,4-triazol-1-yl)-2-methyl-8-quinolinyl]oxy]methyl]phenyl]sulphonyl]-N-[[1-(2-(hydroxyethyl)-4-piperidinyl]methyl]-2(S)-pyrrolidinecarboxamide, methanesulphonate] | 5.8 nM | 6.31 nM |  | 
Cc1cc(-n2ccnc2)c2cccc(OCc3c(Cl)ccc(S(=O)(=O)N4CCC[C@H]4C(=O)NCCCNC(=O)c4ccc(C(=N)N)cc4)c3Cl)c2n1 [Example 4, N-[3-[[4-(Aminoiminomethyl)benzoyl]amino]propyl]-1-[[2,4-dichloro-3-[[[4-(1H-imidazol-1-yl)-2-methyl-8-quinolinyl]oxy]methyl]phenyl]sulphonyl]-2(S)-pyrrolidinecarboxamide, bis methanesulphonate] | 0.24 nM | 0.1 nM |  | 
